Consider 18 compounds from PubChem BioAssay AID256 (DTP/NCI, 2004).

The test concerns CD2F1 mice, L1210 leukemia ip, survival T/C. In words: NCI In Vivo Anticancer Drug Screen. Data for tumor model L1210 Leukemia (intraperitoneal) in CD2F1 (CDF1) mice. As to conditions: higher = longer survival. In outline:
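Vehicle-treated tumor-bearing mice served as controls (C) for compound-treated mice (T). Reported figure is T divided by C.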

Where [1] appears, read: endpoint: mean survival time, dose: 25.0 mg/kg/injection, schedule: Q04DX002 (ip), vehicle: saline with Tween-80.
Where [2] appears, read: endpoint: mean survival time, dose: 50.0 mg/kg/injection, schedule: Q04DX002 (ip), vehicle: saline with Tween-80.
Where [3] appears, read: endpoint: mean survival time, dose: 1.56 mg/kg/injection, schedule: Q01DX009 (ip), vehicle: saline.
The mark [4] stands for this setting: endpoint: mean survival time, dose: 3.12 mg/kg/injection, schedule: Q01DX009 (ip), vehicle: saline.
The mark [5] stands for this setting: endpoint: mean survival time, dose: 400.0 mg/kg/injection, schedule: Q04DX003 (ip), vehicle: saline with Tween-80.
The mark [6] stands for this setting: endpoint: mean survival time, dose: 100.0 mg/kg/injection, schedule: Q01DX009 (ip), vehicle: Klucel (hydroxypropylcellulose) (HPC).
Where [7] appears, read: endpoint: mean survival time, dose: 200.0 mg/kg/injection, schedule: Q01DX009 (ip), vehicle: Klucel (hydroxypropylcellulose) (HPC).

Several values for one entry are separate records, joined by “and”; a condition that tells them apart may be missing. Identical values can stand only once. Inconclusive results and toxic doses are left out.

Take `Cc1ccc(Nc2nc(N)nc3nc(N)c(C(N)=O)nc23)cc1C`: the T/C (endpoint: mean survival time, dose: 12.5 mg/kg/injection, schedule: Q04DX002 (ip), vehicle: Klucel (hydroxypropylcellulose) (HPC)) was 91 % of control; the T/C (endpoint: mean survival time, dose: 25.0 mg/kg/injection, schedule: Q04DX002 (ip), vehicle: Klucel (hydroxypropylcellulose) (HPC)) was 86 % of control; the T/C (endpoint: mean survival time, dose: 50.0 mg/kg/injection, schedule: Q04DX002 (ip), vehicle: Klucel (hydroxypropylcellulose) (HPC)) is 91 % of control.
As for `O=C(O)c1nn2c(=O)c3cccc4cccc(c43)c2c1C(=O)O`, the T/C by setting is: under setting [1], 95 % of control; under setting [2], 98 % of control; (endpoint: mean survival time, dose: 100.0 mg/kg/injection, schedule: Q04DX002 (ip), vehicle: saline with Tween-80) 95 % of control; (endpoint: mean survival time, dose: 200.0 mg/kg/injection, schedule: Q04DX002 (ip), vehicle: saline with Tween-80) 95 % of control.
`CCC[CH2][Sn]([CH2]CC)([CH2]CCC)[O]C(=O)c1ccccc1`: the T/C is, setting by setting: (endpoint: mean survival time, dose: 0.78 mg/kg/injection, schedule: Q01DX009 (ip), vehicle: saline with Tween-80) 104 % of control; (endpoint: mean survival time, dose: 1.56 mg/kg/injection, schedule: Q01DX009 (ip), vehicle: saline with Tween-80) 107 % of control.
For the compound `Clc1ccc(CC[PH+]2CC=CC2)cc1.Clc1ccc(CC[PH+]2CC=CC2)cc1.[Cl][Ni][Cl]`, the T/C runs as follows: (endpoint: mean survival time, dose: 12.5 mg/kg/injection, schedule: Q01DX009 (ip), vehicle: DMSO) 101 % of control; (endpoint: mean survival time, dose: 25.0 mg/kg/injection, schedule: Q01DX009 (ip), vehicle: DMSO) 101 % of control; under setting [1], 91 % of control; under setting [2], 95 % of control.
On to `CCNC(=O)OCc1cn2c(c1COC(=O)NCC)CCC2`, for which the T/C (endpoint: mean survival time, dose: 0.78 mg/kg/injection, schedule: Q04DX003 (ip), vehicle: other) is 101 % of control; the T/C (endpoint: mean survival time, dose: 1.56 mg/kg/injection, schedule: Q04DX003 (ip), vehicle: other) is 87 % of control; the T/C (endpoint: mean survival time, dose: 3.13 mg/kg/injection, schedule: Q04DX003 (ip), vehicle: other) is 92 % of control; the T/C (endpoint: mean survival time, dose: 6.25 mg/kg/injection, schedule: Q04DX003 (ip), vehicle: other) is 92 % of control; the T/C (endpoint: mean survival time, dose: 12.5 mg/kg/injection, schedule: Q04DX003 (ip), vehicle: other) is 97 % of control.
With `O=C1OC(=O)C2C3CCC(O3)C12` (stereo not drawn), the T/C under setting [3] is 98 % of control; the T/C under setting [4] was 101 % of control; the T/C (endpoint: mean survival time, dose: 5.0 mg/kg/injection, schedule: Q01DX009 (ip), vehicle: saline with Tween-80) is 103 % of control; the T/C (endpoint: mean survival time, dose: 10.0 mg/kg/injection, schedule: Q01DX009 (ip), vehicle: saline with Tween-80) is 100 % of control; the T/C (endpoint: mean survival time, dose: 20.0 mg/kg/injection, schedule: Q01DX009 (ip), vehicle: saline with Tween-80) was 98 % of control.
`O=C(O)C(O)C(O)C(O)CO.[Zn+2]` (stereo not drawn): the T/C is 108 % of control (endpoint: mean survival time, dose: 6.25 mg/kg/injection, schedule: Q01DX005 (ip), vehicle: saline with Tween-80); 108 % of control (endpoint: mean survival time, dose: 12.5 mg/kg/injection, schedule: Q01DX005 (ip), vehicle: saline with Tween-80); 95 % of control (endpoint: mean survival time, dose: 12.5 mg/kg/injection, schedule: Q04DX003 (ip), vehicle: saline); 103 % of control (endpoint: mean survival time, dose: 25.0 mg/kg/injection, schedule: Q01DX005 (ip), vehicle: saline with Tween-80); 95 % of control (endpoint: mean survival time, dose: 25.0 mg/kg/injection, schedule: Q04DX003 (ip), vehicle: saline); 101 % of control (endpoint: mean survival time, dose: 50.0 mg/kg/injection, schedule: Q04DX003 (ip), vehicle: saline).
For `O=C(Nc1ccccc1)OCC1CC2C=CC1C2` (stereo not drawn), the T/C is 111 % of control (endpoint: mean survival time, dose: 75.0 mg/kg/injection, schedule: Q01DX001 (ip), vehicle: saline with Tween-80); 94 % of control (endpoint: mean survival time, dose: 150.0 mg/kg/injection, schedule: Q01DX001 (ip), vehicle: saline with Tween-80); 94 % of control (endpoint: mean survival time, dose: 300.0 mg/kg/injection, schedule: Q01DX001 (ip), vehicle: saline with Tween-80).
Regarding `Cc1ccc(S(=O)(=O)Oc2cc([N+](=O)[O-])ccc2N)cc1`, the T/C is 95 % of control (endpoint: mean survival time, dose: 100.0 mg/kg/injection, schedule: Q04DX003 (ip), vehicle: saline); 100 % of control (endpoint: mean survival time, dose: 200.0 mg/kg/injection, schedule: Q04DX003 (ip), vehicle: saline); 103 % of control (endpoint: mean survival time, dose: 400.0 mg/kg/injection, schedule: Q04DX003 (ip), vehicle: saline).
`CC(=O)OCC1OC(n2cnc(N)nc2=O)C(OC(C)=O)C1OC(C)=O` (stereo not drawn): the T/C was 121 % of control under setting [3]; 158 % of control under setting [4]; 161 % of control (endpoint: mean survival time, dose: 6.25 mg/kg/injection, schedule: Q01DX009 (ip), vehicle: saline); 169 % of control (endpoint: mean survival time, dose: 12.5 mg/kg/injection, schedule: Q01DX009 (ip), vehicle: saline); 110 % of control and 111 % of control (endpoint: mean survival time, dose: 25.0 mg/kg/injection, schedule: Q01DX009 (ip), vehicle: saline).
For the compound `Cc1c2ccccc2cc2c1ccc1ccccc12`, the T/C is, setting by setting: (endpoint: mean survival time, dose: 9.0 mg/kg/injection, schedule: Q01DX009 (ip), vehicle: saline with Tween-80) 106 % of control; (endpoint: mean survival time, dose: 17.5 mg/kg/injection, schedule: Q01DX009 (ip), vehicle: saline with Tween-80) 108 % of control; (endpoint: mean survival time, dose: 35.0 mg/kg/injection, schedule: Q01DX009 (ip), vehicle: saline with Tween-80) 108 % of control; (endpoint: mean survival time, dose: 70.0 mg/kg/injection, schedule: Q01DX009 (ip), vehicle: saline with Tween-80) 103 % of control.
Take `CC(C)NC(=O)OCc1c(COC(=O)NC(C)C)c(-c2ccc(Cl)c(Cl)c2)n2c1CCC2`: the T/C is 115 % of control (endpoint: mean survival time, dose: 6.25 mg/kg/injection, schedule: Q01DX009 (ip), vehicle: distilled water + Tween-80); 103 % of control (endpoint: mean survival time, dose: 6.25 mg/kg/injection, schedule: Q01DX009 (ip), vehicle: saline with Tween-80); 118 % of control (endpoint: mean survival time, dose: 12.5 mg/kg/injection, schedule: Q01DX009 (ip), vehicle: distilled water + Tween-80); 116 % of control (endpoint: mean survival time, dose: 12.5 mg/kg/injection, schedule: Q01DX009 (ip), vehicle: saline with Tween-80); 121 % of control (endpoint: mean survival time, dose: 25.0 mg/kg/injection, schedule: Q01DX009 (ip), vehicle: saline with Tween-80); 89 % of control (endpoint: mean survival time, dose: 100.0 mg/kg/injection, schedule: Q01DX009 (ip), vehicle: saline with Tween-80). The T/C runs as follows: (endpoint: median survival time, dose: 50.0 mg/kg/injection, schedule: Q01DX005 (ip), vehicle: saline with Tween-80) 151 % of control; (endpoint: median survival time, dose: 100.0 mg/kg/injection, schedule: Q01DX005 (ip), vehicle: saline with Tween-80) 179 % of control; (endpoint: median survival time, dose: 200.0 mg/kg/injection, schedule: Q01DX005 (ip), vehicle: saline with Tween-80) 190 % of control; (endpoint: median survival time, dose: 800.0 mg/kg/injection, schedule: Q01DX005 (ip), vehicle: saline with Tween-80) 102 % of control.
As for `O=C1c2ccccc2C(=O)N1C1CCCCC1`, the T/C (endpoint: mean survival time, dose: 100.0 mg/kg/injection, schedule: Q04DX003 (ip), vehicle: saline with Tween-80) is 100 % of control; the T/C (endpoint: mean survival time, dose: 200.0 mg/kg/injection, schedule: Q04DX003 (ip), vehicle: saline with Tween-80) was 95 % of control; the T/C under setting [5] is 95 % of control.
As for `CCNC(C)(C)C(SSSC(c1ccc(C(F)(F)F)cc1)C(C)(C)NCC)c1ccc(C(F)(F)F)cc1` (stereo not drawn), for the setting “endpoint: mean survival time, dose: 100.0 mg/kg/injection, schedule: Q01DX009 (ip), vehicle: saline”, the T/C was 90 % of control.
`O=C(O)C1CCC(NCc2ccccc2)CC1` (stereo not drawn): the T/C under setting [6] is 100 % of control; the T/C under setting [7] was 100 % of control; the T/C (endpoint: mean survival time, dose: 400.0 mg/kg/injection, schedule: Q01DX009 (ip), vehicle: Klucel (hydroxypropylcellulose) (HPC)) is 111 % of control.
`Nc1c2c(nn1-c1ccccc1)C(=O)N(CCc1ccccc1)C2`: under setting [5], the T/C was 90 % of control.
In the case of `ClC1CCCC[N-]1.ClC1CCCC[N-]1.[Cl][Pt+2][Cl]` (stereo not drawn), the T/C is 103 % of control (endpoint: mean survival time, dose: 12.5 mg/kg/injection, schedule: Q01DX009 (ip), vehicle: Klucel (hydroxypropylcellulose) (HPC)); 100 % of control (endpoint: mean survival time, dose: 25.0 mg/kg/injection, schedule: Q01DX009 (ip), vehicle: Klucel (hydroxypropylcellulose) (HPC)); 95 % of control (endpoint: mean survival time, dose: 50.0 mg/kg/injection, schedule: Q01DX009 (ip), vehicle: Klucel (hydroxypropylcellulose) (HPC)); 94 % of control under setting [6]; 97 % of control under setting [7].
Consider `CCOC(=O)C(C(=O)OCC)C1c2ccccc2C(=O)N(CCN(C)C)c2ccccc21` (stereo not drawn), for which, for the setting “endpoint: mean survival time, dose: 130.0 mg/kg/injection, schedule: Q01DX001 (ip), vehicle: saline”, the T/C was 103 % of control.
